Test results taken from US20260373266A1, “PROTEIN DEGRADERS AND USES THEREOF” (KYMERA THERAPEUTICS, INC., priority 2022, published 2026).

System: BRD4 (N-terminally HiBiT-tagged, HEK293T cells)
Assay: BRD4 degradation in HiBiT-BRD4-HEK293T cells
Format: cell-based
Conditions: not given

Compared with `Cc1sc2c(c1C)C(c1ccc(Cl)cc1)=N[C@@H](CC(=O)NCCOCCOCCOCCOCCCc1ccc(C(=O)c3[nH]cc(C(=O)N[C@@H](CC(N)=O)c4cccc(Cl)c4)c3-c3c(F)ccc(F)c3C)cc1)c1nnc(C)n1-2` [I-905, N—((S)-3-amino-1-(3-chlorophenyl)-3-oxopropyl)-5-(4-(1-((S)-4-(4-chlorophenyl)-2,3,9-trimethyl-6H-thieno[3,2-f][1,2,4]triazolo[4,3-a][1,4]diazepin-6-yl)-2-oxo-6,9,12,15-tetraoxa-3-azaoctadecan-18-yl)benzoyl)-4-(3,6-difluoro-2-methylphenyl)-1H-pyrrole-3-carboxamide], `Cc1sc2c(c1C)C(c1ccc(Cl)cc1)=N[C@@H](CC(=O)NCCOCCOCCOCCOCCOCCCc1ccc(C(=O)c3[nH]cc(C(=O)N[C@@H](CC(N)=O)c4cccc(Cl)c4)c3-c3c(F)ccc(F)c3C)cc1)c1nnc(C)n1-2` [I-907] is lower in DC50: > 0.5 µM for the first, 0.01 to 0.1 µM for the second.

For `Cc1sc2c(c1C)C(c1ccc(Cl)cc1)=N[C@@H](CC(=O)NCCOCCOCCOCCOCCCc1ccc(C(=O)c3[nH]cc(C(=O)N[C@@H](CC(N)=O)c4cccc(Cl)c4)c3-c3c(F)ccc(F)c3C)cc1)c1nnc(C)n1-2` [I-905, N—((S)-3-amino-1-(3-chlorophenyl)-3-oxopropyl)-5-(4-(1-((S)-4-(4-chlorophenyl)-2,3,9-trimethyl-6H-thieno[3,2-f][1,2,4]triazolo[4,3-a][1,4]diazepin-6-yl)-2-oxo-6,9,12,15-tetraoxa-3-azaoctadecan-18-yl)benzoyl)-4-(3,6-difluoro-2-methylphenyl)-1H-pyrrole-3-carboxamide], the Dmax was “B (70-90%)”.
In the case of `Cc1sc2c(c1C)C(c1ccc(Cl)cc1)=N[C@@H](CC(=O)NCCOCCOCCOCCOCCOCCCc1ccc(C(=O)c3[nH]cc(C(=O)N[C@@H](CC(N)=O)c4cccc(Cl)c4)c3-c3c(F)ccc(F)c3C)cc1)c1nnc(C)n1-2` [I-907], the Dmax is reported as “B (70-90%)”.

Target: T1, DCAF1 WD40 domain (residues 1077-1390) (Homo sapiens, UniProt Q9Y4B6)
T1 construct: DCAF1 WD40 domain (residues 1077-1390)
T1 sequence (Q9Y4B6 1077-1390): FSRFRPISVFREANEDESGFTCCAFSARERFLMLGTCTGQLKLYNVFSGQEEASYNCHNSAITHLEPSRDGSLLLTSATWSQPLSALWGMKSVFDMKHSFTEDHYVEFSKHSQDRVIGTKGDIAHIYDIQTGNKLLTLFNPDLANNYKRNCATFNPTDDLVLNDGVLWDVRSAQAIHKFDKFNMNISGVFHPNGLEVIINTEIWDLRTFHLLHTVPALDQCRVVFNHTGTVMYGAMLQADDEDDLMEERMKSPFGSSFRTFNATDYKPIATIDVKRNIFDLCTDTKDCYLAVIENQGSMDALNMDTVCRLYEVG
Assay: DCAF1 binding assay by SPR (Biacore 8K+), DCAF1-3 KD
Conditions: 25 °C, read-out: DCAF1-3 SPR (KD)

`Cc1sc2c(c1C)C(c1ccc(Cl)cc1)=N[C@@H](CC(=O)NCCOCCOCCOCCOCCOCCCc1ccc(C(=O)c3[nH]cc(C(=O)N[C@@H](CC(N)=O)c4cccc(Cl)c4)c3-c3c(F)ccc(F)c3C)cc1)c1nnc(C)n1-2` [I-907] and `Cc1cc(CCCOCCOCCOCCOCCOCCNC(=O)C[C@@H]2N=C(c3ccc(Cl)cc3)c3c(sc(C)c3C)-n3c(C)nnc32)cc(F)c1-c1c(C(=O)N[C@@H](CC(N)=O)c2cccc(Cl)c2)c[nH]c1C#N` [I-1051] cannot be ordered by Kd: < 10 µM for the first, < 10 µM for the second.

Compared with `NC(=O)N1CC2(CCCN(c3cccc(F)c3)C2)Nc2cc(N3CCCCC3)ncc21` (stereo not drawn) [I-1006], `NCC(=O)N1CC2(CCCN(c3cccc(F)c3)C2)Nc2cc(N3CCCCC3)ncc21` (stereo not drawn) [I-1020] is lower in Kd: 100 to 200 µM for the first, 10 to 100 µM for the second.

First: OC[C@@H]1CC[C@H](Nc2cc(N3CCCCC3)ccn2)CN1c1cccc(F)c1 [I-1007]
Second: OC[C@H]1CC[C@@H](Nc2cc(N3CCCCC3)ccn2)CN1c1cccc(F)c1 [I-1008]
The Kd of the first is lower: < 10 µM for the first, 10 to 100 µM for the second. The first binds more tightly here.

`NCc1cnc(N2CCCCC2)nc1N[C@@H]1CCCN(c2cccc(F)c2)C1` [I-1010] and `NCCNc1cnc(N2CCCCC2)nc1N[C@@H]1CCCN(c2cccc(F)c2)C1` [I-1014] fall in the same range of Kd: 10 to 100 µM for the first, 10 to 100 µM for the second.

`OC[C@@H]1C[C@H](Nc2cc(N3CCCCC3)ccn2)CN(c2cccc(F)c2)C1` [I-1011] and `OC[C@H]1C[C@H](Nc2cc(N3CCCCC3)ccn2)CN(c2cccc(F)c2)C1` [I-1012] fall in the same range of Kd: 10 to 100 µM for the first, 10 to 100 µM for the second.

`Cc1c(F)ccc(F)c1-c1c(C(=O)N[C@@H](CC(N)=O)c2cccc(Cl)c2)cn(C)c1C(=O)c1ccc(OCCOCCOCCOCCOCCOCCOCCN)cc1` [I-1015] and `Cc1c(F)ccc(F)c1-c1c(C(=O)N[C@@H](CC(N)=O)c2cccc(Cl)c2)cn(C)c1C(=O)c1ccc(OCCOCCOCCOCCOCCOCCN)cc1` [I-1018] cannot be ordered by Kd: < 10 µM for the first, < 10 µM for the second.

`Cc1c(F)ccc(F)c1-c1c(C(=O)N[C@@H](CC(N)=O)c2cccc(Cl)c2)cn(C)c1C(=O)c1ccc(OCCOCCOCCOCCOCCN)cc1` [I-1017] and `Cc1c(F)ccc(F)c1-c1c(C(=O)N[C@@H](CC(N)=O)c2cccc(Cl)c2)cn(C)c1C(=O)c1ccc(OCCOCCOCCOCCN)cc1` [I-1024] cannot be ordered by Kd: < 10 µM for the first, < 10 µM for the second.

`NCC1CC[C@@H](Nc2cc(N3CCCCC3)ccn2)CN1c1cccc(F)c1` (stereo partly drawn) [I-1019] and `NC[C@H]1CC[C@H](Nc2cc(N3CCCCC3)ccn2)CN1c1cccc(F)c1` [I-1021] fall in the same range of Kd: 10 to 100 µM for the first, 10 to 100 µM for the second.

`NC[C@@H]1CC[C@H](Nc2cc(N3CCCCC3)ccn2)CN1c1cccc(F)c1` [I-1022] and `NC[C@@H]1CC[C@@H](Nc2cc(N3CCCCC3)ccn2)CN1c1cccc(F)c1` [I-1023] fall in the same range of Kd: 10 to 100 µM for the first, 10 to 100 µM for the second.

`NC(=O)[C@H]1CC[C@@H](Nc2cc(N3CCCCC3)ccn2)CN1c1cccc(F)c1` [I-1025] and `NC(=O)[C@@H]1CC[C@H](Nc2cc(N3CCCCC3)ccn2)CN1c1cccc(F)c1` [I-1027] fall in the same range of Kd: 10 to 100 µM for the first, 10 to 100 µM for the second.

`Cc1c(F)ccc(F)c1-c1c(C(=O)N[C@@H](CC(N)=O)c2cccc(Cl)c2)cn(C)c1C(=O)c1ccc(O)cc1` [I-1030] and `Cc1c(F)ccc(F)c1-c1c(C(=O)N[C@@H](CC(N)=O)c2cccc(Cl)c2)cn(C)c1C(=O)c1ccc(CN2CCC(C=O)CC2)cc1` [I-1037] cannot be ordered by Kd: < 10 µM for the first, < 10 µM for the second.

`NC(=O)[C@@H]1C[C@H](Nc2cc(N3CCCCC3)ccn2)CN(c2cccc(F)c2)C1` [I-1031] and `NC(=O)[C@H]1C[C@@H](Nc2cc(N3CCCCC3)ccn2)CN(c2cccc(F)c2)C1` [I-1032] fall in the same range of Kd: 10 to 100 µM for the first, 10 to 100 µM for the second.

Compared with `NC(=O)[C@@H]1C[C@@H](Nc2cc(N3CCCCC3)ccn2)CN(c2cccc(F)c2)C1` [I-1033], `NC[C@H]1C[C@H](Nc2cc(N3CCCCC3)ccn2)CN(c2cccc(F)c2)C1` [I-1039] is higher in Kd: < 10 µM for the first, 10 to 100 µM for the second. The first binds more tightly here.

Compared with `Cc1c(F)ccc(F)c1-c1c(C(=O)N[C@@H](CC(N)=O)c2cccc(Cl)c2)cn(C)c1C(=O)c1ccc(OCCOCCOCCN)cc1` [I-1034], `Cc1ccc(CCCOCCOCCOCCOCCOCCNC(=O)C[C@@H]2N=C(c3ccc(Cl)cc3)c3c(sc(C)c3C)-n3c(C)nnc32)c(F)c1-c1c(C(=O)N[C@@H](CC(N)=O)c2cccc(Cl)c2)c[nH]c1C#N` [I-1052] is higher in Kd: < 10 µM for the first, 10 to 100 µM for the second. The first binds more tightly here.

First: NC(=O)OCc1cc(F)cc(N2CCC[C@@H]3[C@H]2CCN3c2cc(N3CC4CC(C4)C3)ccn2)c1 [I-1036]
Second: CC(=O)NC1CCC2(CC1)CCN(c1ccnc(N3CC[C@@H]4[C@H]3CCCN4c3cccc(F)c3)c1)CC2 [I-1047]
The Kd of the first is higher: 10 to 100 µM for the first, < 10 µM for the second. The second binds more tightly here.

`NC[C@@H]1C[C@@H](Nc2cc(N3CCCCC3)ccn2)CN(c2cccc(F)c2)C1` [I-1040] and `NC[C@H]1C[C@@H](Nc2cc(N3CCCCC3)ccn2)CN(c2cccc(F)c2)C1` [I-1041] fall in the same range of Kd: 10 to 100 µM for the first, 10 to 100 µM for the second.

`NC[C@@H]1C[C@H](Nc2cc(N3CCCCC3)ccn2)CN(c2cccc(F)c2)C1` [I-1042] and `NC[C@@H]1CCN(c2cccc(F)c2)C[C@H]1Nc1cc(N2CCCCC2)ccn1` [I-1044] fall in the same range of Kd: 10 to 100 µM for the first, 10 to 100 µM for the second.

`Cc1c(F)c(Cl)cc(F)c1-c1[nH]ncc1C(=O)N[C@@H](CC(N)=O)c1cccc(Cl)c1` [I-1043] and `NC(=O)CC(NC(=O)c1cn[nH]c1-c1c(F)cc(Cl)cc1F)c1ccc(F)c(Cl)c1` (stereo not drawn) [I-1049] cannot be ordered by Kd: < 10 µM for the first, < 10 µM for the second.

First: NC[C@@H]1CCN(c2cccc(F)c2)C[C@@H]1Nc1cc(N2CCCCC2)ccn1 [I-1045]
Second: Fc1cccc(N2CCC[C@@H](Nc3cc(N4CCCCC4)cc4c3CNC4)C2)c1 [I-1050]
The Kd of the first is higher: 100 to 200 µM for the first, 10 to 100 µM for the second.

In the case of `Cc1nc(Nc2ncc(C(=O)Nc3c(C)cccc3Cl)s2)cc(N2CCC(OC3CCN(CCCCCCCC(=O)N4CCN(c5ccc6c(NCCN)nc(C7(c8ccc(Cl)cc8)CCCCC7)nc6c5)CC4)CC3)CC2)n1` [I-1053], the Kd is reported as < 10 µM.

Same assay, conditions: DCAF1-3 SPR (KD), 25 °C

`Cc1sc2c(c1C)C(c1ccc(Cl)cc1)=N[C@@H](CC(=O)NCCOCCOCCOCCOCCCc1ccc(C(=O)c3[nH]cc(C(=O)N[C@@H](CC(N)=O)c4cccc(Cl)c4)c3-c3c(F)ccc(F)c3C)cc1)c1nnc(C)n1-2` [I-905, N—((S)-3-amino-1-(3-chlorophenyl)-3-oxopropyl)-5-(4-(1-((S)-4-(4-chlorophenyl)-2,3,9-trimethyl-6H-thieno[3,2-f][1,2,4]triazolo[4,3-a][1,4]diazepin-6-yl)-2-oxo-6,9,12,15-tetraoxa-3-azaoctadecan-18-yl)benzoyl)-4-(3,6-difluoro-2-methylphenyl)-1H-pyrrole-3-carboxamide] and `NC(=O)OCc1cc(F)cc(N2CCC[C@H]3[C@@H]2CCN3c2cc(N3CC4CC(C4)C3)ccn2)c1` [I-1035, 3-((3aS,7aS)-1-(4-(3-azabicyclo[3.1.1]heptan-3-yl)pyridin-2-yl)octahydro-4H-pyrrolo[3,2-b]pyridin-4-yl)-5-fluorobenzyl carbamate] cannot be ordered by Kd: < 10 µM for the first, < 10 µM for the second.
